Patent US9844595B2, “Composition comprising a complex of (+)-catechin and amino acid for the treatment and prevention of cancer” (VALORE, priority 2013, dated 2017)
Where “and” joins values, the source holds several entries; their conditions need not be identical. Equal entries are not always repeated. Where two headings read alike, the source gives them in different places. Each block holds one molecule with its values, some of them ahead of it.

Tests used:
[1] = for Δct measured between the IV and PO data, free (+)-catechin / Δct measured between the IV and PO data, total (+)-catechin: PO vs IV; for plasma concentration (cc) of the free monomeric (+)-catechin / plasma concentration (cc) of the total monomeric (+)-catechin: 25 mg/kg (+)-catechin equivalent
Description: The experimental results described below were obtained on the basis of a study carried out in healthy human beings and in healthy Wistar rats weighing approximately 250 grams.
An acclimation period was observed before beginning the experiments.
The rats received an administration per os of a volume of 5 ml of a solution of active product.
With regard to taking the blood samples from the rats and from the human beings, the blood was collected in tubes internally coated with EDTA and was then centrifuged at 3000 rpm (revolutions per minute) at ambient temperature for 45 min, and then for 15 min at a temperature of 4° C. The plasma was then collected and stored at −70° C. before analysis.
The analytical technique (LC-MS/MS for Liquid Chromatography coupled to tandem Mass Spectrometry) for measuring the active substance in the blood was based on the method described by Mata-Bilbao et al., published in 2007 in the Journal of Agricultural and Food Chemistry, volume 55, page 8857.
The free (+)-catechin was extracted from the plasma with a solution of phosphoric acid, EDTA and ascorbic acid and was then purified by SPE (solid phase extraction); in particular, it is an Oasis™ HLB extraction which is analyzed by LC-MS/MS. The quantification was carried out according to a standard calibration procedure with (+/−)-catechin-2,3,4-^13C3 as internal standard (SI).
The procedure is identical with regard to the extraction and the quantification of free quercetin or ECGC in the blood.
With regard to the extraction and quantification of the total (+)-catechin, the procedure is the same as that applied to the free (+)-catechin, with the exception of the fact that an additional step prior to the purification by SPE is carried out.
(§1) Each of the mixtures is then solubilized in water.
Each of the mixtures is solubilized in water.

[2] = assay type: in vivo, Wistar rats; settings: IV, rats; for plasma concentration (cc) of the free monomeric (+)-catechin / plasma concentration (cc) of the total monomeric (+)-catechin: 25 mg/kg (+)-catechin equivalent
Source text: as §1

collagen of rat skin = experiment: Total incorporation and incorporation into collagen of 3H-proline in the skin; assay type: in vivo, Wistar rats; settings: for increase in the level of incorporation: 100 mg/kg by gavage, vs control subgroup
Description: To do this, a study was carried out in vivo on a batch of 24 female Wistar rats weighing from 95 to 115 g, divided into two groups C and D, each of 12 rats. For each group, the radioactive 3H-hydroxyproline, the specific activity of which is 13.6 Ci/10-3 mol, was administered to all the animals by intraperitoneal injection of 3H-proline at a dose, relative to the weight of the individuals, of 1 mCi/kg, which represents an activity in terms of radioactive 3H-proline of 100 μCi/individual.
6 rats of each group received a treatment based on monomeric (+)-catechin by gavage in a proportion of 100 mg/kg for 5 days before sacrifice. […] The group C received monomeric (+)-catechin hydrochlorolysinate, while the group D received monomeric (+)-catechin ascorbolysinate.
In table 8, the level of incorporation is measured by the number of disintegrations of the radioactive 3H-hydroxyproline per minute (dpm) per mg of dry weight. The higher this number, the higher the concentration of 3H-hydroxyproline.
In this comparative example, a group E of 12 Wistar rats weighing from 95 to 115 g, in which radioactive 3H-hydroxyproline, the specific activity of which is 13.6 Ci/10-3 mol, was administered to all the individuals by intraperitoneal injection of 3H-proline at a dose, relative to the weight of the individuals, of 1 mCi/kg, which represents an activity in terms of radioactive 3H-proline of 100 μCi/individual.
6 rats of each group received a treatment based on pure monomeric (+)-catechin by gavage in a proportion of 100 mg/kg for 5 days before sacrifice.

gastric mucosa = experiment: Incidence of gastric ulcers and histamine level in the gastric mucosa in Mastomys; assay type: in vivo
Description: In this example, a sample of n=48 Mastomys are sensitized a first time by intraperitoneal injection of 3 μg of ovalbumin dissolved in 0.2 ml of saline solution containing 1 mg of aluminum hydroxide which brings about anti-immunoglobulin E (IgE) and G (IgG) antibodies. After 7 days, a second injection of 1 mg of ovalbumin in 0.01 ml of saline solution is given in the gastric mucosa at the level of the corpus of the anesthetized animals, which causes an ulcerated lesion at the actual site of the injection.
The 48 rats are divided up into three groups: one of 24 and two of 12 individuals. The first group of 24 individuals (G1) received a placebo (concentrated NaCl solution at 0.15 M).
The histamine level is measured for the G1, G2 and G3 groups on the basis of a sample of n=12 individuals.

[3] = tested on: monoclonal immunoglobulins (IgM); experiment: Treatment of a patient with lymphoplasmocytic lymphoma (Waldenström macroglobulinemia type): IgM assay; assay type: in vivo, human; settings: one patient
Description: In the first patient a lymphoplasmocytic lymphoma (of Waldenström macroglobulinemia type) was detected during a post-operative blood test on day Do. The diagnosis is based on the electrophoretic detection of a monoclonal peak of immunoglobulins (IgM). This diagnosis was reconfirmed and the peak was assayed during a second analysis using the same detection by electrophoresis.
These immunoglobulins are found at a high concentration in the blood and in the urine. They therefore constitute real tumor markers. The assaying thereof gives an account of the number of sick cells and the extent of the disease and, consequently, makes it possible to monitor its progression under treatment.
Successive blood tests gave the following data for the IgM assay (in mg per 100 ml of plasma): […]

[4] = tested on: clear cell renal carcinoma; experiment: Treatment of a patient with renal adenocarcinoma; assay type: in vivo, human; settings: DT+19 months, reconfirmed DT+23 months; one patient, 500 mg per day orally, after nephrectomy, dissections and radiotherapy
Description: In the second patient, a left subclavicular cervical adenopathy was first of all detected on day Do. Next, 2 weeks later, a left renal adenocarcinoma was detected for this patient, which was followed by a nephrectomy of the left kidney 3 days after the detection of the adenocarcinoma in this kidney.
Thereafter, on day D0+3 months, a left cervical lymph node dissection is performed on the patient. This procedure was followed by a series of 15 radiotherapy sessions.
Starting from day D0+15 months (that is to say on day DT), the patient was orally administered a tablet of 500 mg of (+)-catechin hydrochlorolysinate per day.
On day DT+15 months, the appearance of a pathological mediastinal adenopathy (45 cm^3 in volume) was observed and required a mediastinal lymph node dissection followed by a pulmonary examination on day DT+17 months.

[5] = 25 mg/kg, rats, listed as C:Lys:HCl/1:2:2, 25 mg/kg
[6] = free (+)-catechin, rats, per os, dose equivalent to 25 mg/kg (+)-catechin, 5 Wistar rats, pulverulent mixture solubilized in water
[7] = treated, 100 mg/kg by gavage for 5 days, per mg of dry weight
[8] = G3, n = 12, 100 mg intraperitoneally
[9] = oral administration, vs placebo

Molecule: Cl.Cl.Cl.Cl.Cl.NCCCCC(N)C(=O)O.NCCCCC(N)C(=O)O.NCCCCC(N)C(=O)O.NCCCCC(N)C(=O)O.NCCCCC(N)C(=O)O.Oc1cc(O)c2c(c1)O[C@H](c1ccc(O)c(O)c1)[C@@H](O)C2.Oc1cc(O)c2c(c1)O[C@H](c1ccc(O)c(O)c1)[C@@H](O)C2 [1:2.5:2.5]
ct, value reported on the curve in FIG. 5 ([1]; rat, in vivo, 25 mg/kg): 105 k ng min/ml

Molecule: Cl.Cl.Cl.NCCCCC(N)C(=O)O.NCCCCC(N)C(=O)O.NCCCCC(N)C(=O)O.Oc1cc(O)c2c(c1)O[C@H](c1ccc(O)c(O)c1)[C@@H](O)C2 [1:3:3, reference compound]
ct, calculated value ([1]; rat, in vivo, 25 mg/kg): 38 k ng min/ml

Molecule: Cl.Cl.Cl.Cl.Cl.NCCCCC(N)C(=O)O.NCCCCC(N)C(=O)O.NCCCCC(N)C(=O)O.NCCCCC(N)C(=O)O.NCCCCC(N)C(=O)O.Oc1cc(O)c2c(c1)O[C@H](c1ccc(O)c(O)c1)[C@@H](O)C2 [1:5:5, reference compound]
ct, calculated value ([1]; rat, in vivo, 25 mg/kg): 26 k ng min/ml

Molecule: O=C(O[C@@H]1Cc2c(O)cc(O)cc2O[C@@H]1c1cc(O)c(O)c(O)c1)c1cc(O)c(O)c(O)c1 [EGCG, epigallocatechin gallate, reference compound]
plasma levels measured (below the reliable limits of detection) ([1]; EGCG, rats, per os, dose equivalent to 25 mg/kg polyphenol): below 250 ng/ml

Δct^q (difference of ct to QP, related back to QP) ([1]; Wistar, rat, in vivo, 25 mg/kg): 0%
Molecule: O=c1c(O)c(-c2ccc(O)c(O)c2)oc2cc(O)cc(O)c12 [QP, quercetin, reference compound]

Molecule: Cl.Cl.NCCCCC(N)C(=O)O.NCCCCC(N)C(=O)O.Oc1cc(O)c2c(c1)O[C@H](c1ccc(O)c(O)c1)[C@@H](O)C2 [[C:Lys:HCl/1:2:2]]
Δct measured between the IV and PO data, free (+)-catechin ([1]; 25 mg/kg, rats, 25 mg/kg): 88% | Δct measured between the IV and PO data, total (+)-catechin ([1]; 25 mg/kg, rats, 25 mg/kg): 73% | Δct measured between the IV and PO data, free (+)-catechin [1, 5]: +88% | Δct measured between the IV and PO data, total (+)-catechin [1, 5]: +73% | total plasma concentration (ct) of the total monomeric (+)-catechin ([1]; PO, 25 mg/kg, rats): 479 585 ng min/ml | plasma concentration (cc) of the free monomeric (+)-catechin ([1]; PO, T 10 min, rats): 428 ng/mL | plasma concentration (cc) of the total monomeric (+)-catechin ([1]; PO, T 10 min, rats): 1839 ng/mL | plasma concentration (cc) of the free monomeric (+)-catechin ([1]; PO, T 30 min, rats): 1027 ng/mL | plasma concentration (cc) of the total monomeric (+)-catechin ([1]; PO, T 30 min, rats): 3780 ng/mL | plasma concentration (cc) of the free monomeric (+)-catechin ([1]; PO, T 60 min, rats): 1188 ng/mL | plasma concentration (cc) of the total monomeric (+)-catechin ([1]; PO, T 60 min, rats): 3190 ng/mL | plasma concentration (cc) of the free monomeric (+)-catechin ([1]; PO, T 120 min, rats): 767 ng/mL | plasma concentration (cc) of the total monomeric (+)-catechin ([1]; PO, T 120 min, rats): 1990 ng/mL | plasma concentration (cc) of the free monomeric (+)-catechin ([1]; PO, T 240 min, rats): 179 ng/mL | plasma concentration (cc) of the total monomeric (+)-catechin ([1]; PO, T 240 min, rats): 475 ng/mL | T (max) [1, 6]: 1 h | c (max) [1, 6]: 1200 ng/mL | total plasma concentration (ct) of the free monomeric (+)-catechin ([2]; 25 mg/kg): 87 970 ng min/ml | total plasma concentration (ct) of the total monomeric (+)-catechin ([2]; 25 mg/kg): 277 040 ng min/ml | plasma concentration (cc) of the free monomeric (+)-catechin ([2]; T 10 min): 3340 ng/mL | plasma concentration (cc) of the total monomeric (+)-catechin ([2]; T 10 min): 8066 ng/mL | plasma concentration (cc) of the free monomeric (+)-catechin ([2]; T 30 min): 991 ng/mL | plasma concentration (cc) of the total monomeric (+)-catechin ([2]; T 30 min): 2639 ng/mL | plasma concentration (cc) of the free monomeric (+)-catechin ([2]; T 60 min): 291 ng/mL | plasma concentration (cc) of the total monomeric (+)-catechin ([2]; T 60 min): 1191 ng/mL | plasma concentration (cc) of the free monomeric (+)-catechin ([2]; T 120 min): 0 ng/mL | plasma concentration (cc) of the total monomeric (+)-catechin ([2]; T 120 min, 25 mg/kg): 340 ng/mL and 338 ng/mL | plasma concentration (cc) of the free monomeric (+)-catechin ([2]; T 240 min): 0 ng/mL | plasma concentration (cc) of the total monomeric (+)-catechin ([2]; T 240 min): 0 ng/mL

Δct^q (difference of ct to QP, related back to QP) ([1]; rat, in vivo, 25 mg/kg): +18%
Molecule: Cl.Cl.NCCCCC(N)C(=O)O.NCCCCC(N)C(=O)O.O=c1c(O)c(-c2ccc(O)c(O)c2)oc2cc(O)cc(O)c12 [[Q:Lys:HCl/1:2:2], reference compound]

Molecule: monomeric (+)-catechin ascorbolysinate
increase in the level of incorporation (collagen of rat skin): +14%

Molecule: monomeric (+)-catechin hydrochlorolysinate [[C:Lys:HCl/1:1:1]]
increase in the level of incorporation (collagen of rat skin): +15% | level of incorporation into collagen (IC) of 3H-hydroxyproline in rat skin (collagen of rat skin; [7]): 1343 ± 48 dpm/mg | level of total incorporation (IT) of 3H-hydroxyproline in rat skin (collagen of rat skin; [7]): 6248 ± 124 dpm/mg | HL (histamine level in the gastric mucosa) (gastric mucosa; G2, n = 12, per os twice a day (2×300 mg)): 37.91 ± 3.73 10^−6 mg/kg of protein | NU (number of animals exhibiting a gastric ulcer) (gastric mucosa; G2, n = 12, per os twice a day (2×300 mg), two days before and three days after injection): 5 | HL (histamine level in the gastric mucosa) (gastric mucosa; [8]): 34.98 ± 3.52 10^−6 mg/kg of protein | NU (number of animals exhibiting a gastric ulcer) (gastric mucosa; [8]): 6 | decrease in the histamine level (HL) in the gastric mucosa (gastric mucosa; [9]): −18% | decrease in the number of animals exhibiting a gastric ulcer (NU) (gastric mucosa; [9]): −72% | IgM level in the blood ([3]; DT + 4 months, tablet of 500 mg per day from day DT (IgM 2931 on DT)): 2417 mg/100 ml | IgM level in the blood ([3]; DT + 9 months, tablet of 500 mg per day from day DT): 2410 mg/100 ml | IgM level in the blood ([3]; DT + 15 months, tablet of 500 mg per day from day DT): 2412 mg/100 ml | status of the clear cell renal carcinoma (consultation report) [4]: complete remission
